Results as given in publication PMC11898563 (2025).

Key:
[1] = test system: MST-DA-1 (DNA, aptamer) ATAGGAGTCACGACGACCAGAAAAATAATTTAAATTTTCTACCCAATGCTTTTCGCATAATATGTGCGTCTACCTCTTGA; assay: microscale thermophoresis; conditions: 150 mM NaCl, 2 mM MgCl2; 50 mM Tris, pH 7.4, room temperature
[2] = test system: APT-mid-BHQ1 (DNA, aptamer, internal BHQ1-dT at 29) ATTTGACCATGTCGAGGGAGACGCGCAGTCGCTACCACCT; assay: strand-displacement fluorescence (duplexed FRET); conditions: FAM-11nt-C strand displaced; 1 h after OA addition
[3] = test system: MST-OA-2 (DNA, aptamer) ATTTGACCATGTCGAGGGAGACGCGCAGTCGCTACCACCT; assay: microscale thermophoresis; conditions: 150 mM NaCl, 2 mM MgCl2; 50 mM Tris, pH 7.4, room temperature
[4] = test system: FRET-OA-1 (DNA, aptamer) GGTCACCAACAACAGGGAGCGCTACGCGAAGGGTCAATGTGACGTCATGCGGATGTGTGG; assay: fluorescence (FAM/BHQ-1 FRET) titration; conditions: 150 mM NaCl, 2 mM MgCl2; 50 mM Tris, pH 7.5, 37 °C, 500 nM aptamer; exact value in Figure 1C
[5] = test system: OA-2 (DNA, aptamer) ATTTGACCATGTCGAGGGAGACGCGCAGTCGCTACCACCT; assay: AuNP aggregation colorimetry; conditions: NaCl added (100 mmol L^−1 stock); 1 μmol L^−1 aptamer, room temperature
[6] = test system: MST-OA-1 (DNA, aptamer) GGTCACCAACAACAGGGAGCGCTACGCGAAGGGTCAATGTGACGTCATGCGGATGTGTGG; assay: microscale thermophoresis; conditions: 150 mM NaCl, 2 mM MgCl2; 50 mM Tris, pH 7.5, room temperature
[7] = test system: FRET-OA-2 (DNA, aptamer) ATTTGACCATGTCGAGGGAGACGCGCAGTCGCTACCACCT; assay: fluorescence (FAM/BHQ-1 FRET) titration; conditions: 150 mM NaCl, 2 mM MgCl2; 50 mM Tris, pH 7.4, 37 °C, 500 nM aptamer; exact value in Figure 1D

`C/C(=C/C=C/[C@@H](C)C(=O)O)[C@H]1CN[C@H](C(=O)O)[C@H]1CC(=O)O` was tested. Which Kd [1] did it give?
The Kd was 1180 ± 2030 nM.

`C=C1[C@@H](O)[C@@H]2O[C@]3(CC[C@H](/C=C/[C@@H](C)[C@@H]4CC(C)=C[C@@]5(O[C@H](C[C@@](C)(O)C(=O)O)CC[C@H]5O)O4)O3)CC[C@H]2O[C@@H]1[C@@H](O)C[C@H](C)[C@H]1O[C@@]2(CCCCO2)CC[C@H]1C` was tested. Which binding [2] did it give?
Its binding is “yes”.

And the Kd [3]?
Its Kd is 257.25 ± 90.25 nM.

And the Kd [4]?
The Kd was under 800 nM.

What about the binding [5] of the same molecule?
Its binding is “yes”.

And the Kd [6]?
The Kd was 1260 ± 560 nM.

What about the Kd [7] of the same molecule?
The Kd was under 800 nM.
